Experimental findings from patent publication US12692223B2, “Phenyl-sulfamoyl-benzoic acid derivatives as ERAP1-modulators” (GREY WOLF THERAPEUTICS LIMITED, priority 2021, dated 2026) are described below.

For orientation: IC50 means the midpoint of a concentration-inhibition curve.

Each structure is given as a SMILES string.

The target of this assay is T1, ERAP1 (Homo sapiens, UniProt Q9NZ08).
T1 construct: Purified ERAP1(37-941)-10His (ERAP1)
T1 sequence (Q9NZ08 37-941): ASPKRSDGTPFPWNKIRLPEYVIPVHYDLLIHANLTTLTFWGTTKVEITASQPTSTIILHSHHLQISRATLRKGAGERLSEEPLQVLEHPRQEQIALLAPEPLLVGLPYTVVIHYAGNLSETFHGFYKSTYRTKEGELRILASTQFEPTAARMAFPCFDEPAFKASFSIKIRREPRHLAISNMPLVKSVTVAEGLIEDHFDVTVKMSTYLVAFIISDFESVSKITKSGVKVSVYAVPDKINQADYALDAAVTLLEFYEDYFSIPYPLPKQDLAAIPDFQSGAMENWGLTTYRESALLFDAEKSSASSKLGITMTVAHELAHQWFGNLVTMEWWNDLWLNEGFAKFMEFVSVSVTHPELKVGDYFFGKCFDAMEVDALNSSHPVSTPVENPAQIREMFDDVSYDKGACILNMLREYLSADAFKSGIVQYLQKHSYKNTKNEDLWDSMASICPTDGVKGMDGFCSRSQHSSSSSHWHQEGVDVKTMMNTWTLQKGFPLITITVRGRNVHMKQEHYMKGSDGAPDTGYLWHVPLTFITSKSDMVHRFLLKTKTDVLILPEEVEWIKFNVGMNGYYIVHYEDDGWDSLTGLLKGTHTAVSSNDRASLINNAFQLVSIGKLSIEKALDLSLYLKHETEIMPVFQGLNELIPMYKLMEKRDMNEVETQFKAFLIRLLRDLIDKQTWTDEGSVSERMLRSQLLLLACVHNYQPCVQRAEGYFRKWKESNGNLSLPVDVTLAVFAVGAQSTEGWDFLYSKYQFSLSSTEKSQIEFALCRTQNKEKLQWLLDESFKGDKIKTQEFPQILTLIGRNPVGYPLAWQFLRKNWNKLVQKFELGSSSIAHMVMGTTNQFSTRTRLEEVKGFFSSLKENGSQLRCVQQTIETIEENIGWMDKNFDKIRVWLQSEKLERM
The assay can be described thus: ERAP1 mediated hydrolysis of an amide substrate measured in a biochemical system (10-mer inhibition assay). The note with it: purified ERAP1(37-941)-10His; 10-mer substrate; 23° C. for 1 h; excitation 279 nm, emission 355 nm; read-out: IC50 vs Decapeptide WRVYEKC(Dnp)ALK-acid (where Dnp is Dinitrophenyl maleimide) (10-mer). The essentials: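 Purified ERAP1(37-941)-10His in 25 mM Bis-tris propane, 0.05% HPMC, pH 7.75, with compound, then 100 μM 10-mer WRVYEKC(Dnp)ALK or 240 μM L-AMC added (stock concentrations before 1:1 mixing), 1 h at 23 °C. Fluorescence read at ex 279/em 355 nm (10-mer) or ex 365/em 442 nm (L-AMC); IC50 from 4-parameter fit.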
Regarding `N#Cc1cc(NS(=O)(=O)c2cc(C(=O)O)ccc2C2CC2)c(OCC2(F)COC2)cc1Cl` [Example 37, 3-(N-(4-chloro-5-cyano-2-((3-fluorooxetan-3-yl)methoxy)phenyl)sulfamoyl)-4-cyclopropylbenzoic acid], the 50% inhibitory concentration (IC50) lay in the range of 1 to 5 nM.

Consider `N#Cc1cc(NS(=O)(=O)c2cc(C(=O)O)ccc2C2CC2)c(OC2CCCC2)cc1Cl` [Example 1, 3-(N-(4-chloro-5-cyano-2-(cyclopentyloxy)phenyl)sulfamoyl)-4-cyclopropylbenzoic acid], for which the concentration for half-maximal inhibition (IC50) is less than 1 nM.

As for `N#Cc1cc(NS(=O)(=O)c2cc(C(=O)O)ccc2C2CC2)c(OCC2CCCC2)cc1Cl` [Example 44, 3-(N-(4-chloro-5-cyano-2-(cyclopentylmethoxy)phenyl)sulfamoyl)-4-cyclopropylbenzoic acid], the half-maximal inhibitory concentration (IC50) is less than 1 nM.

`N#Cc1cc(NS(=O)(=O)c2cc(C(=O)O)ccc2C2CC2)c(OC2CCC2O)cc1Cl` (racemic) [Example 113, 3-(N-(4-chloro-5-cyano-2-(cis-2-hydroxycyclobutoxy)phenyl)sulfamoyl)-4-cyclopropylbenzoic acid]: the IC50 is less than 1 nM.

Take `N#Cc1cc(NS(=O)(=O)c2cc(C(=O)O)ccc2C2CC2)c(OC2CCC23CCC3)cc1Cl` (single isomer, unassigned) [Example 92, 3-(N-(4-chloro-5-cyano-2-(spiro[3.3]heptan-1-yloxy)phenyl)sulfamoyl)-4-cyclopropylbenzoic acid]: the IC50 is less than 1 nM.

`N#Cc1cc(NS(=O)(=O)c2cc(C(=O)O)ccc2C2CC2)c(OC2CCC2O)cc1Cl` (single isomer, unassigned) [Example 129, 3-(N-(4-chloro-5-cyano-2-(trans-2-hydroxycyclobutoxy)phenyl)sulfamoyl)-4-cyclopropylbenzoic acid]: the 50% inhibitory concentration (IC50) is greater than 5 nM.

In the case of `N#Cc1cc(NS(=O)(=O)c2cc(C(=O)O)ccc2C2CC2)c(O[C@@H]2C[C@@H]3C[C@@H]3C2)cc1Cl` [Example 41, Cis-3-(N-(2-(bicyclo[3.1.0]hexan-3-yloxy)− 4-chloro-5-cyanophenyl)sulfamoyl)-4-cyclopropylbenzoic acid], the half-inhibitory concentration (IC50) is less than 1 nM.

Take `N#Cc1cc(NS(=O)(=O)c2cc(C(=O)O)cc(F)c2C2CC2)c(OC2CCCC2)cc1Cl` [Example 18, 3-(N-(4-chloro-5-cyano-2-(cyclopentyloxy)phenyl)sulfamoyl)-4-cyclopropyl-5-fluorobenzoic acid]: the 50% inhibitory concentration (IC50) is less than 1 nM.

For the molecule `C#CC1CCCC1Oc1cc(Cl)c(C#N)cc1NS(=O)(=O)c1cc(C(=O)O)ccc1C1CC1` (single isomer, unassigned) [Example 117, 3-(N-(4-chloro-5-cyano-2-((trans-2-ethynylcyclopentyl)oxy)phenyl)sulfamoyl)-4-cyclopropylbenzoic acid], the IC50 was less than 1 nM.

For `O=C(O)c1ccc(C2CC2)c(S(=O)(=O)Nc2cc(-c3ccns3)c(Cl)cc2OC2CC(F)(F)C2)c1` [Example 50, 3-(N-(4-chloro-2-(3,3-difluorocyclobutoxy)-5-(isothiazol-5-yl)phenyl)sulfamoyl)-4-cyclopropylbenzoic acid], the IC50 was less than 1 nM.

For `C#CC1CCCC1Oc1cc(Cl)c(C#N)cc1NS(=O)(=O)c1cc(C(=O)O)ccc1C1CC1` (single isomer, unassigned) [Example 116, 3-(N-(4-chloro-5-cyano-2-((trans-2-ethynylcyclopentyl)oxy)phenyl)sulfamoyl)-4-cyclopropylbenzoic acid], the half-maximal inhibitory concentration (IC50) is greater than 5 nM.

As for `CO[C@@H]1CCC[C@H]1Oc1cc(Cl)c(C#N)cc1NS(=O)(=O)c1cc(C(=O)O)ccc1C1CC1` [Example 109, 3-(N-(4-chloro-5-cyano-2-(((1R,2R)-2-methoxycyclopentyl)oxy)phenyl)sulfamoyl)-4-cyclopropylbenzoic acid], the half-inhibitory concentration (IC50) is less than 1 nM.

With `N#Cc1cc(NS(=O)(=O)c2cc(C(=O)O)ccc2C2CC2)c(OC2COC2)cc1Cl` [Example 66, 3-(N-(4-chloro-5-cyano-2-(oxetan-3-yloxy)phenyl)sulfamoyl)-4-cyclopropylbenzoic acid], the IC50 is greater than 5 nM.

As to `N#Cc1cc(NS(=O)(=O)c2cc(C(=O)O)ccc2C2CC2)c(OC2CCC2)cc1Cl` [Example 12, 3-(N-(4-chloro-5-cyano-2-cyclobutoxyphenyl)sulfamoyl)-4-cyclopropylbenzoic acid], the half-inhibitory concentration (IC50) was less than 1 nM.

In the case of `CC1CCCC1Oc1cc(Cl)c(C#N)cc1NS(=O)(=O)c1cc(C(=O)O)ccc1C1CC1` (racemic) [Example 105, 3-(N-(4-chloro-5-cyano-2-((cis-2-methylcyclopentyl)oxy)-phenyl)sulfamoyl)-4-cyclopropylbenzoic acid], the IC50 is less than 1 nM.

Take `Cc1cc(C2CC2)c(S(=O)(=O)Nc2cc(C#N)c(Cl)cc2OC2CCCC2)cc1C(=O)O` [Example 26, 5-(N-(4-chloro-5-cyano-2-(cyclopentyloxy)phenyl)sulfamoyl)-4-cyclopropyl-2-methylbenzoic acid]: the 50% inhibitory concentration (IC50) was in the range of 1 to 5 nM.

`O=C(O)c1ccc(C2CC2)c(S(=O)(=O)Nc2cc(-n3cnnn3)ccc2OC2CCCC2)c1` [Example 8, 3-(N-(2-(cyclopentyloxy)-5-(1H-tetrazol-1-yl)phenyl)sulfamoyl)-4-cyclopropylbenzoic acid]: the 50% inhibitory concentration (IC50) was less than 1 nM.

With `N#Cc1cc(NS(=O)(=O)c2cc(C(=O)O)ccc2C2CC2)c(OC2CCCC2F)cc1Cl` (racemic) [Example 86, 3-(N-(4-chloro-5-cyano-2-((trans-2-fluorocyclopentyl)oxy)phenyl)sulfamoyl)-4-cyclopropylbenzoic acid], the IC50 was less than 1 nM.

As to `N#Cc1cc(NS(=O)(=O)c2cc(C(=O)O)ccc2C2CC2)c(OC2CCC2O)cc1Cl` (single isomer, unassigned) [Example 128, 3-(N-(4-chloro-5-cyano-2-(trans-2-hydroxycyclobutoxy)phenyl)sulfamoyl)-4-cyclopropylbenzoic acid], the IC50 was less than 1 nM.

For `O=C(O)c1ccc(C2CC2)c(S(=O)(=O)Nc2cc(C(F)(F)F)ccc2OC2CCCC2)c1` [Example 4, 3-(N-(2-(cyclopentyloxy)^−5-(trifluoromethyl)phenyl)sulfamoyl)-4-cyclopropylbenzoic acid], the half-maximal inhibitory concentration (IC50) was 1 to 5 nM.

For the molecule `N#Cc1cc(NS(=O)(=O)c2cc(C(=O)O)ccc2C2CC2)c(OC2CCC23CC3)cc1Cl` (stereo not shown) [Example 56, 3-(N-(4-chloro-5-cyano-2-(spiro[2.3]hexan-4-yloxy)phenyl)sulfamoyl)-4-cyclopropylbenzoic acid], the IC50 is less than 1 nM.

With `COC1CCCC1Oc1cc(Cl)c(C#N)cc1NS(=O)(=O)c1cc(C(=O)O)ccc1C1CC1` (racemic) [Example 85, 3-(N-(4-chloro-5-cyano-2-((trans-2-methoxycyclopentyl)oxy)phenyl)sulfamoyl)-4-cyclopropylbenzoic acid], the IC50 is less than 1 nM.

As to `N#Cc1cc(NS(=O)(=O)c2cc(C(=O)O)c(F)cc2C2CC2)c(OC2CC(F)(F)C2)cc1Cl` [Example 17, 5-(N-(4-chloro-5-cyano-2-(3,3-difluorocyclobutoxy)phenyl)sulfamoyl)-4-cyclopropyl-2-fluorobenzoic acid], the IC50 was less than 1 nM.

Turning to `N#Cc1cc(NS(=O)(=O)c2cc(C(=O)O)ccc2C2CC2)c(OC2CCC2O)cc1Cl` (single isomer, unassigned) [Example 135, 3-(N-(4-chloro-5-cyano-2-(cis-2-hydroxycyclobutoxy)phenyl)sulfamoyl)-4-cyclopropylbenzoic acid], the concentration for half-maximal inhibition (IC50) is greater than 5 nM.

As to `N#Cc1cc(NS(=O)(=O)c2cc(C(=O)O)ccc2C2CC2)c(OC2CCC(C#N)C2)cc1Cl` (racemic) [Example 74, 3-(N-(4-chloro-5-cyano-2-((cis-3-cyanocyclopentyl)oxy)phenyl)sulfamoyl)-4-cyclopropylbenzoic acid], the IC50 was less than 1 nM.

Turning to `N#Cc1cc(NS(=O)(=O)c2cc(C(=O)O)ccc2C2CC2)c(OC2CCC23CC3)cc1Cl` (single isomer, unassigned) [Example 107, 3-(N-(4-chloro-5-cyano-2-(spiro[2.3]hexan-4-yloxy)phenyl)-sulfamoyl)-4-cyclopropylbenzoic acid], the IC50 is less than 1 nM.

Consider `C#CC1(Oc2cc(Cl)c(C#N)cc2NS(=O)(=O)c2cc(C(=O)O)ccc2C2CC2)CCCC1` [Example 30, 3-(N-(4-chloro-5-cyano-2-((1-ethynylcyclopentyl)oxy)phenyl)sulfamoyl)-4-cyclopropylbenzoic acid], for which the IC50 was 1 to 5 nM.

In the case of `N#Cc1cc(NS(=O)(=O)c2cc(C(=O)O)ccc2C2CC2)c(OC2CCC23CCC3)cc1Cl` (single isomer, unassigned) [Example 91, 3-(N-(4-chloro-5-cyano-2-(spiro[3.3]heptan-1-yloxy)phenyl)sulfamoyl)-4-cyclopropylbenzoic acid], the IC50 was 1 to 5 nM.

Turning to `CC1CCCC1Oc1cc(Cl)c(C#N)cc1NS(=O)(=O)c1cc(C(=O)O)ccc1C1CC1` (single isomer, unassigned) [Example 100, 3-(N-(4-chloro-5-cyano-2-((trans-2-methylcyclopentyl)oxy)-phenyl)sulfamoyl)-4-cyclopropylbenzoic acid], the IC50 was less than 1 nM.

On to `C#CC1CCCC1Oc1cc(Cl)c(C#N)cc1NS(=O)(=O)c1cc(C(=O)O)ccc1C1CC1` (single isomer, unassigned) [Example 126, 3-(N-(4-chloro-5-cyano-2-((cis-2-ethynylcyclopentyl)oxy)phenyl)sulfamoyl)-4-cyclopropylbenzoic acid], for which the IC50 was less than 1 nM.

For `CO[C@H]1C[C@H](COc2cc(Cl)c(C#N)cc2NS(=O)(=O)c2cc(C(=O)O)ccc2C2CC2)C1` [Example 46, 3-(N-(4-chloro-5-cyano-2-((trans-3-methoxycyclobutyl)methoxy)phenyl)sulfamoyl)-4-cyclopropylbenzoic acid], the IC50 lay within 1 to 5 nM.
